Experimental data published in patent US20230151014A1 (Repare Therapeutics Inc., priority 2020, published 2023).

What follows are compounds tested against T1, recombinant human Myt1 (Homo sapiens, UniProt Q99640) (assay: Myt1 enzymatic assay (ADP-Glo kinase assay, IC50 and % max inhibition)). Settings: recombinant human Myt1 18 nM, ATP 10 μM.
T1 construct: full length PKMYT1 recombinant human protein expressed in insect cells
T1 sequence (Q99640 1-499): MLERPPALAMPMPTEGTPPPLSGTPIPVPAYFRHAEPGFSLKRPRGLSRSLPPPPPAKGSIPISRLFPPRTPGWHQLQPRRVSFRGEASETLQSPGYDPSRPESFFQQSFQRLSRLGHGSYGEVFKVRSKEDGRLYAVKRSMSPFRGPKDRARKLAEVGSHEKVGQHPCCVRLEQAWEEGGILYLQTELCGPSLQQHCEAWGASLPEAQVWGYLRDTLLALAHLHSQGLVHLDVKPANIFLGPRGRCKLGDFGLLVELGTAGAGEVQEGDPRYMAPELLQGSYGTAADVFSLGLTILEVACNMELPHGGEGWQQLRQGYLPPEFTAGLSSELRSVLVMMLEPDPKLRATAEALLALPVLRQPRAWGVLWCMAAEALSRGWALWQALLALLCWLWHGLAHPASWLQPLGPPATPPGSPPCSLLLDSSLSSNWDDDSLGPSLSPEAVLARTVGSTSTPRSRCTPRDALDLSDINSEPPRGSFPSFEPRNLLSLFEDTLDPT
Assay type: biochemical
Description: Detection of Myt1 kinase activity utilized a recombinant human Myt1 kinase assay measuring the hydrolysis of ATP using a commercially available ADP-Glo Assay (ADP-Glo™ Kinase Assay from Promega, 10 000 assays, #V9102). […] After this, 5 μL of compounds (diluted in reaction buffer to 0.5% DMSO) was added to the microplate and the plate was spun briefly and incubated at 22° C. for 15 minutes. Ultra-Pure Adenosine Triphosphate (ATP) solution (ADP-Glo kit from Promega) was diluted in reaction buffer and 5 μL was added to the microplate, spun down briefly and incubated for 60 minutes at 30° C. […] After the 60-minute incubation, 15 μL of ADP-Glo reagent was added and the plate was spun briefly and sealed and incubated in the dark for 40 minutes at 22° C. […] Luminescence was read using the Envision (250 ms integration). The IC50 and the % max inhibition were calculated for each inhibitor compound tested.

Cc1ccc(O)c(C)c1-n1c(N)c(C(N)=O)c2ncc(C#CC3(C)CCCO3)nc21 (centres unmarked) [Compound 235] and Cc1ccc(O)c(C)c1-n1c(N)c(C(N)=O)c2ncc(C#CC3(O)CCOC3)nc21 (centres unmarked) [Compound 236] are within 1.5-fold of each other in IC50: 13 nM for the first, 16 nM for the second.

Going from Cc1ccc(O)c(C)c1-n1c(N)c(C(N)=O)c2ncc(C#CCC3(O)CCOCC3)nc21 [Compound 237] to Cc1ccc(O)c(C)c1-n1c(N)c(C(N)=O)c2ncc(C#CC3(O)CCC(F)(F)CC3)nc21 [Compound 242, 6-amino-3-[2-(4,4-difluoro-1-hydroxy-cyclohexyl)ethynyl]-5-(3-hydroxy-2,6-dimethyl-phenyl)pyrrolo[2,3-b]pyrazine-7-carboxamide], the IC50 falls from 19 nM to less than 10 nM. The second is the more potent here.

Compared with COC(C)(C)C#Cc1cnc2c(C(N)=O)c(N)n(-c3c(C)ccc(O)c3C)c2n1 [Compound 238], Cc1ccc(O)c(C)c1-n1c(N)c(C(N)=O)c2ncc(C#CC(C)(C)O)nc21 [Compound 239] is 1.5-fold higher in IC50: 10 nM for the first, 15 nM for the second.

Compared with COCCOCC#Cc1cnc2c(C(N)=O)c(N)n(-c3c(C)ccc(O)c3C)c2n1 [Compound 240], Cc1ccc(O)c(C)c1-n1c(N)c(C(N)=O)c2ncc(C#C[C@@H](C)O)nc21 [Compound 241] is 8-fold lower in IC50: 191 nM for the first, 24 nM for the second.

First: Cc1ccc(O)c(C)c1-n1c(N)c(C(N)=O)c2nc(C(=O)Nc3cccnc3)cnc21 [Compound 243, 6-amino-5-(3-hydroxy-2,6-dimethyl-phenyl)-N2-(3-pyridyl)pyrrolo[2,3-b]pyrazine-2,7-dicarboxamide]
Second: Cc1ccc(O)c(C)c1-n1c(N)c(C(N)=O)c2nc(C(=O)NCc3ccccc3)cnc21 [Compound 245]
The IC50 of the first is 6.3-fold higher: 69 nM for the first, 11 nM for the second.

Going from CCNC(=O)c1cnc2c(n1)c(C(N)=O)c(N)n2-c1c(C)ccc(O)c1C [Compound 244] to CCN(CC)C(=O)c1cnc2c(n1)c(C(N)=O)c(N)n2-c1c(C)ccc(O)c1C [Compound 246], the IC50 rises from 16 nM to 84 nM (5.2-fold).

First: Cc1ccc(O)c(C)c1-n1c(N)c(C(N)=O)c2nc(-c3cc4ccccc4n3C)cnc21 [Compound 247]
Second: Cc1ccc(O)c(C)c1-n1c(N)c(C(N)=O)c2nc(-c3nc4ccccc4n3C)cnc21 [Compound 254]
The IC50 of the first is 1.7-fold higher: 17 nM for the first, 10 nM for the second.

Going from Cc1ccc(O)c(C)c1-n1c(N)c(C(N)=O)c2nc(-c3nc4ccccc4s3)cnc21 [Compound 248] to Cc1ccc(O)c(C)c1-n1c(N)c(C(N)=O)c2nc(-c3nc4ccccc4o3)cnc21 [Compound 249], the IC50 rises from less than 10 nM to 20 nM. The first is the more potent here.

First: Cc1ccc(O)c(C)c1-n1c(N)c(C(N)=O)c2nc(-c3ccnnc3)cnc21 [Compound 250]
Second: Cc1cnc2c(n1)c(C(N)=O)c(N)n2-c1c(C)ccc(O)c1C [Compound 285]
The IC50 of the first is lower: less than 10 nM for the first, 11 nM for the second.

First: Cc1ccc(O)c(C)c1-n1c(N)c(C(N)=O)c2nc(N3CC4(COC4)C3)cnc21 [Compound 253]
Second: C=Cc1cnc2c(n1)c(C(N)=O)c(N)n2-c1c(C)ccc(O)c1C [Compound 259]
The IC50 of the first is higher: 24 nM for the first, less than 10 nM for the second.

Compared with Cc1ccc(O)c(C)c1-n1c(N)c(C(N)=O)c2nc(-c3nc(C)c(C)o3)cnc21 [Compound 255], Cc1ccc(O)c(C)c1-n1c(N)c(C(N)=O)c2nc(C(F)F)cnc21 [Compound 263, 6-amino-2-(difluoromethyl)-5-(3-hydroxy-2,6-dimethyl-phenyl)pyrrolo[2,3-b]pyrazine-7-carboxamide] is 6.8-fold lower in IC50: 109 nM for the first, 16 nM for the second. The second is the more potent here.

Going from Cc1ccc(O)c(C)c1-n1c(N)c(C(N)=O)c2nc(C3CC3)c(C3CC3)nc21 [Compound 256] to Cc1ccc(O)c(C)c1-n1c(N)c(C(N)=O)c2nc3c(nc21)CCCC3 [Compound 262], the IC50 falls from 50 nM to less than 10 nM.

First: C=Cc1cnc2c(C(N)=O)c(N)n(-c3c(C)ccc(O)c3C)c2n1 [Compound 257, 6-amino-5-(3-hydroxy-2,6-dimethyl-phenyl)-3-vinyl-pyrrolo[2,3-b]pyrazine-7-carboxamide]
Second: Cc1ccc(O)c(C)c1-n1c(N)c(C(N)=O)c2nc(OC3CC3)cnc21 [Compound 260, 6-amino-2-(cyclopropoxy)-5-(3-hydroxy-2,6-dimethyl-phenyl)pyrrolo[2,3-b]pyrazine-7-carboxamide]
The IC50 of the first is 1.6-fold higher: 43 nM for the first, 27 nM for the second.

Compared with Cc1ccc(O)c(C)c1-n1c(N)c(C(N)=O)c2nc(-c3cccc(OC4CCOCC4)n3)cnc21 [Compound 258], Cc1ccc(O)c(C)c1-n1c(N)c(C(N)=O)c2nc(C#CC3CCNC3)cnc21 (centres unmarked) [Compound 279] is 13-fold lower in IC50: 3130 nM for the first, 250 nM for the second.

Compared with Cc1ccc(O)c(C)c1-n1c(N)c(S(C)(=O)=O)c2nc(-c3cnccn3)cnc21 [Compound 278], Cc1ccc(O)c(C)c1-n1c(N)c(C(N)=O)c2cc(-c3ccccn3)cnc21 [Compound 295] is lower in IC50: greater than 5000 nM for the first, less than 10 nM for the second.

Going from Cc1ccc(O)c(C)c1-n1c(N)c(C(N)=O)c2nc(CCC3CCNC3)cnc21 (centres unmarked) [Compound 280] to Cc1ccc(O)c(C)c1-n1c(N)c(C(N)=O)c2c(Cl)c(Cl)cnc21 [Compound 316], the IC50 falls from 80 nM to less than 10 nM. The second is the more potent here.

First: Cc1ccc(O)cc1-n1c(N)c(C(N)=O)c2nc(OCc3ccccc3)cnc21 [Compound 281]
Second: Cc1ccc(O)cc1-n1c(N)c(C(N)=O)c2nc(OCc3cccnc3)cnc21 [Compound 284]
The IC50 of the first is 3.3-fold higher: 784 nM for the first, 238 nM for the second.

Going from Cc1ccc(O)cc1-n1c(N)c(C(N)=O)c2nc(NCc3ccccc3)cnc21 [Compound 282] to Cc1ccc(O)c(C)c1-n1c(N)c(C(N)=O)c2nc(C#CC(=O)Nc3ccc(F)cc3)cnc21 [Compound 283], the IC50 falls from 625 nM to 32 nM (20-fold). The second is the more potent here.

Cc1ccc(O)c(Br)c1-n1c(N)c(C(N)=O)c2cc(Cl)cnc21 [Compound 289] and Cc1ccc(O)c(Cl)c1-n1c(N)c(C(N)=O)c2cc(Cl)cnc21 [Compound 327] cannot be ordered by IC50: less than 10 nM for the first, less than 10 nM for the second.

Cc1ccc(O)c(C)c1-n1c(N)c(C(N)=O)c2cc(N3CCCC3=O)cnc21 [Compound 298] and Cc1ccc(O)c(C)c1-n1c(N)c(C(N)=O)c2cc(I)cnc21 [Compound 319] cannot be ordered by IC50: less than 10 nM for the first, less than 10 nM for the second.

First: Cc1c(O)ccc(Br)c1-n1c(N)c(C(N)=O)c2cc(Cl)cnc21 [Compound 301]
Second: Cc1ccc(O)c(C)c1-n1c(N)c(C(N)=O)c2cc(C#N)cnc21 [Compound 312]
The IC50 of the first is higher: 13 nM for the first, less than 10 nM for the second.

Cc1ccc(O)c(C)c1-n1c(N)c(C(N)=O)c2cc(C3=CCOCC3)cnc21 [Compound 304] and Cc1ccc(O)c(C)c1-n1c(N)c(C(N)=O)c2cc(-c3nccs3)cnc21 [Compound 308] cannot be ordered by IC50: less than 10 nM for the first, less than 10 nM for the second.

Cc1ccc(O)c(C)c1-n1c(N)c(C(N)=O)c2cc(S(=O)(=O)C3CC3)cnc21 [Compound 311] and Cc1ccc(O)c(C)c1-n1c(N)c(C(N)=O)c2cccnc21 [Compound 328] cannot be ordered by IC50: less than 10 nM for the first, less than 10 nM for the second.

For Cc1ccc(O)c(C)c1-n1c(N)c(C(N)=O)c2c(C)c(Cl)cnc21 [Compound 313], the IC50 was less than 10 nM.
